Patent US20240299542A1, “NATURAL KILLER CELLS ENGINEERED TO REDUCE OR ELIMINATE CBL-B AND USES THEREOF” (City of Hope, priority 2021, published 2024)

What was measured:
Cbl-b [1] = assay: Cbl-b protein by immunoblot after stimulation of primary human NK cells with cytokines or activating antibody; assay type: cell-based; conditions: primary human NK cells, 24 h cytokine stimulation, compared to resting NK cells without cytokines
Procedure: (FIG. 1B) Enriched primary human NK cells were co-cultured with the K562 myeloid leukemia cell line (E/T ratio=10:1) for 24 h followed by immunoblot analysis. Summary data are from three independent experiments. (FIG. 1C) Primary human NK cells were treated with different concentrations of IL-15 for 24 h followed by immunoblot analysis (n=5 donors). (FIG. 1D) Equal numbers of purified CD56^+ human NK cells, CD56^bright NK cells and CD56^dim NK cells were sorted from peripheral blood mononuclear cells isolated by Ficoll, cultured and stimulated with IL-15 (20 ng/ml for 24 h) followed by immunoblot analysis. The data are representative of three independent experiments. Med, medium only; *P<0.05, **P<0.01 by two-tailed unpaired t-test or One-way ANOVA; ns, not significant. Data are presented as mean±SEM.
FIG. 6A Enriched primary human NK cells were cocultured with Molm-13 or MV4-11 leukemia cell lines (E/T ratio=10:1) for 24 h prior to assessment of Cbl-b by immunoblot analysis. […] FIG. 6B Enriched primary human NK cells were cultured overnight with an anti-NKG2D activating antibody (clone 1D11) (10 μg/ml) or mouse IgG (10 μg/ml) as control prior to assessment of Cbl-b by immunoblot analysis. […] Data are shown summarizes four independent experiments. […] Data are shown summarizes five independent experiments. FIG. 6E The expression of Cbl-b was assessed by qRT-PCR after primary human NK cells were incubated with K562 cells (E/T ratio=10:1) for 24 h. Data are shown summarizes five independent experiments. *P<0.05, **P<0.01, compared to the shortest time point. Data are presented as mean±SEM.
(§1) Immunoblotting. Cells were harvested and suspended in RIPA lysis buffer (Thermo Fisher Scientific) on ice for 20 minutes. Equal amount of protein was resolved by 5-15% Criterion TGX gel (Bio-Rad) and then transferred onto a Nitrocellulose (NC) or PVDF membrane (Thermo Fisher Scientific). The membrane was incubated with a primary antibody at 4° C. overnight and an IRDye secondary antibody (Li-COR Biosciences) for 1 hour at room temperature. The immunoblots were visualized with Odyssey CLx Imager (Li-COR Biosciences). Densitometric analysis was performed to quantify intensity of gel bands with Image J (National Institutes of Health).
We assessed the expression of Cbl-b protein in primary human NK cells enriched from the blood of healthy donors in response to 24-hour stimulation by different cytokines. […] Since certain tumor cells can trigger NK cell activation, we co-cultured NK cells for 24 h with different tumor cell lines in order to assess this effect on the expression of Cbl-b.

IFN-γ [2] = assay: IFN-γ in supernatants by ELISA; assay type: cell-based, human; conditions: IL-15 (10 ng/ml) 24 h, n=7 donors
Procedure: (§2) FIGS. 4A-4D depict the results of a study showing that downregulation of Cbl-b increases IFN-γ secretion in IL-15-activated primary human NK cells. (FIG. 4A) RNAseq was conducted using primary human NK cells transduced with either Cbl-b siRNA or Scr siRNA without or with incubation in IL-15 (10 ng/ml) for 16 h (4 donors for each group). […] (FIG. 4B) qRT-PCR was performed to quantify the mRNA levels of IFN-γ (n=6 donors) after IL-15 (10 ng/ml) 6 h stimulation. (FIG. 4C) The percentage of intracellular IFN-γ+ cells in un-transduced NK cells or those transduced with Cbl-b siRNA or Scr siRNA, each activated with IL-15 (10 ng/ml) for 24 h (11.5% vs 4.338%; P=0.0008; n=5 donors). (FIG. 4D) Supernatants were collected after IL-15 (10 ng/ml) for 24 h and IFN-γ concentrations measured by ELISA (18115 pg/ml vs 882.5 pg/ml; P=0.0099; n=7 donors). Scr-scrambled; *P<0.05, **P<0.01, ***P<0.001 by Student's two-tailed paired t-test or One-way ANOVA; ns, not significant. Data presented as mean±SEM.
(§3) ELISA. Primary NK cells were plated in an equivalent number of 100,000 cells/well in a 96-well plate in RPMI and supplemented with 10% FBS. Cells were treated with recombinant human IL-15 (10 ng/ml) for 24 h, and cell-free culture supernatant was collected and frozen at −80° C. for later use. IFN-γ concentration was measured by ELISA using anti-IFN-γ antibody from Thermo Fisher Scientific. Granzyme B concentration was measured by ELISA kit purchased from R&D.
(§4) To further explore how Cbl-b regulates the functions of primary human NK cells, we performed RNA-seq analyses using enriched primary NK cells from healthy donors transduced with Cbl-b siRNA or Scr siRNA without or with IL-15 treatment for 16 h (n=4 in each group). […] The intracellular results were supported by assessment IFN-γ secretion into the supernatant, in that IL-15-activated primary human NK cells transduced with Cbl-b siRNA expressed 10-fold higher levels of IFN-γ compared to NK cells transduced with Scr siRNA (FIG. 4D).

granzyme B = assay: Granzyme B protein in supernatants by ELISA; assay type: cell-based, human
Procedure: FIGS. 3A-3E depict the results of a study showing that downregulation of Cbl-b enhances the cytotoxicity of primary human NK cells. (FIGS. 3A and 3B) Primary human NK cells transduced with Cbl-b siRNA or Scr siRNA for 24 h were stimulated without (FIG. 3A) or with (FIG. 3B) a low concentration of IL-15 (2 ng/ml) for 16 h, then co-cultured with ^51Cr labeled Molm-13, MV4-11 or EOL-1 leukemia cell lines for 4 h, followed by quantification of specific tumor cell lysis. Each experiment was repeated with 6 different normal donors. (FIG. 3C) qRT-PCR was performed to quantify the granzyme B (GZMB) mRNA levels (n=8 donors) in siRNA- and Scr siRNA-transduced primary human NK cells incubated without or with IL-15 (10 ng/ml) for 16 h. (FIG. 3D) The concentration of the granzyme B protein in the supernatants of Cbl-b siRNA- and Scr siRNA-transduced primary human NK cells incubated without (688.1 pg/ml vs 525.4 pg/ml; P=0.0232) or with IL-15 (10 ng/ml) for 24 h (8789 pg/ml vs 3397 pg/ml; P=0.0232) was measured by ELISA (n=8 donors). (FIG. 3E) The level of granzyme B protein in Cbl-b siRNA- and Scr siRNA-transduced primary human NK cells incubated without or with IL-15 (10 ng/ml) for 24 h was measured by immunoblot analysis. The data are representative of three experiments. Scr-scrambled; *P<0.05, **P<0.01, ***P<0.001, ****P<0.0001 by One-way or Two-way ANOVA; ns, not significant. Data presented as mean±SEM.
as §3
Both groups were next incubated without or with IL-15 and co-cultured with ^51Cr labeled MV4-11, Molm-13, or EOL-1 leukemia cell lines, followed by assessment of specific lysis measured after 4 h of co-culture.

IFN-γ [3] = assay: Intracellular IFN-γ flow cytometry of siRNA-transduced NK cells; assay type: cell-based, human; conditions: IL-15 (10 ng/ml) 24 h, n=5 donors
Procedure: as §2
FIGS. 9B-9D show intracellular flow cytometric analysis of CD56+ primary human NK cells transduced with Scr siRNA or transduced with Cbl-b siRNA, incubated with IL-18 (10 ng/ml), IL-12 (10 ng/ml) or IL-18 (10 ng/ml) plus IL-12 (10 ng/ml) for 24 h. Scr, scrambled; *P<0.05, ns, not significant. Data are presented as mean±SEM.
Flow cytometry. To determine protein cell surface expression via flow cytometry, cells were stained with monoclonal antibodies at room temperature for 20 minutes and washed with FACS buffer prior to analysis using a Fortessa X-20 flow cytometer (BD Biosciences). For IFN-γ intracellular flow cytometric analysis, […] GolgiPlug (BD Biosciences) was added for 4 h before cell harvest; cells were then permeabilized and fixed using a Cytofix/Cytoperm Fixation/Permeabilization Solution Kit (BD Biosciences), followed by analysis with a Fortessa X-20 flow cytometer. Intracellular flow cytometric analysis of Mertk was performed similarly except that GolgiPlug was not added. Data was analyzed by using Flowjo V10 software (Tree Star, Ashland, OR, USA).
as §4

Cbl-b [4] = assay: Cbl-b protein by immunoblot after inhibitor pretreatment and K562 co-culture of primary NK cells; assay type: cell-based, human; conditions: 10 uM, 90 min pretreatment, 24 h co-culture with K562 (E/T=10:1), vs vehicle control
Procedure: FIG. 7A Primary NK cells were pretreated with AZD1480 (10 uM), CP-690550 (10 uM) or Afuresertib (10 uM) for 90 min prior to a 24 h cocultured with K562 cells (E/T=10:1). The immunoblot data are representative of 3 donors in a similar fashion. Densitometric quantification assessing the ratio of Cbl-b protein levels to β-actin protein levels for 3 donors is summarized in FIG. 7B. *P<0.05, **P<0.01; ns, not significant. Data are presented as mean±SEM.
as §1
(§5) Since IL-15 utilizes select JAK-STAT proteins to initiate cellular activation, we pretreated primary NK cells with the JAK3 inhibitor CP-690550 (22) or the JAK1/2 inhibitor AZD1480 (23) in increasing concentrations prior to IL-15 stimulation then Cbl-b expression level was evaluated. […] As K562 cells were also able to induce expression of Cbl-b in primary human NK cells (FIG. 1B), we repeated the inhibitor experiments under the K562 cell stimulation.

Cbl-b [5] = assay: Cbl-b protein by immunoblot after JAK or AKT inhibitor pretreatment and IL-15/IL-2 activation of primary NK cells; assay type: cell-based, human
Procedure: FIGS. 2A-2E depict the results of a study showing that JAK-STAT and AKT pathways mediate upregulation of Cbl-b in NK cells. (FIG. 2A) Primary human NK cells were pretreated with the JAK3 inhibitor CP-690550 and the JAK1/2 inhibitor AZD1480 at various concentrations for 90 min prior to a 24 h activation by IL15 (10 ng/ml). NK cells were then harvested for quantification of Cbl-b protein expression by immunoblot analysis. Data are representative of 6 donors performed in a similar fashion. Densitometric quantification assessing the ratio of the Cbl-b protein to β-actin protein levels for 6 donors is summarized in (FIG. 2B) and (FIG. 2C). […] Data are representative of 5 donors performed in a similar fashion. Densitometric quantification assessing the ratio of the Cbl-b protein levels to β-actin protein levels for 5 donors is summarized in (FIG. 2E). *P<0.05, **P<0.01, ***P<0.001 by One-way ANOVA or Student's two-tailed paired t-test. Data are presented as mean±SEM.
as §1, §5

Molecule: IL-18: Recombinant human IL-18 purchased from Miltenyi Biotec
- expression of Cbl-b protein (ratio to β-actin) (Cbl-b [1]): no significant change

Molecule: Scr siRNA: scrambled Accell siRNA control, SEQ ID NO:2, UGGUUUACAUGUUGUGUGA (Accell modifications, chemistry not fully specified) [reference compound]
- IFN-γ concentration in supernatants (IFN-γ [2]): 882.5 pg/mL
- concentration of granzyme B protein in supernatants (granzyme B; with IL-15 (10 ng/ml) 24 h, n=8 donors): 3397 pg/mL
- concentration of granzyme B protein in supernatants (granzyme B; without IL-15, n=8 donors): 525.4 pg/mL
- percentage of intracellular IFN-γ+ cells (IFN-γ [3]): 4.338%

Molecule: IL-21: Recombinant human IL-21 purchased from Miltenyi Biotec
- expression of Cbl-b protein (ratio to β-actin) (Cbl-b [1]): no significant change

Molecule: Cn1ncc(Cl)c1-c1cc(C(=O)N[C@H](CN)Cc2cccc(F)c2)sc1Cl [Afuresertib]
- Cbl-b expression after inhibitor pretreatment under K562 stimulation (Cbl-b [4]): significant downregulation
- expression of Cbl-b protein after inhibitor pretreatment (Cbl-b [5]; 10 uM, 90 min pretreatment, then IL-15 (10 ng/ml) or IL-2 (150 IU/ml) 24 h): nearly identical results

Molecule: Cc1cc(Nc2nc(N[C@@H](C)c3ncc(F)cn3)ncc2Cl)n[nH]1 [AZD1480]
- Cbl-b expression after inhibitor pretreatment under K562 stimulation (Cbl-b [4]): only the AKT1/2/3 inhibitor Afuresertib rather than either of the two JAK inhibitors
- expression of Cbl-b protein after inhibitor pretreatment (Cbl-b [5]; 90 min pretreatment at various concentrations, then IL-15 (10 ng/ml) 24 h, vs vehicle control): significant decrease

B1: IL-7: Recombinant human IL-7 purchased from Miltenyi Biotec (protein, UniProt P13232 26-177, looked up)
Interleukin-7: DCDIEGKDGKQYESVLMVSIDQLLDSMKEIGSNCLNNEFNFFKRHICDANKEGMFLFRAARKLRQFLKMNSTGDFDLHLLKVSEGTTILLNCTGQVKGRKPAALGEAQPTKSLEENKSLKEQKKLNDLCFLKRLLQEIKTCWNKILMGTKEH
- expression of Cbl-b protein (ratio to β-actin) (Cbl-b [1]): no significant change

B2: IL-12: Recombinant human IL-12 purchased from Miltenyi Biotec (protein, UniProt P29459 23-219; P29460 23-328, looked up)
Interleukin-12 subunit alpha: RNLPVATPDPGMFPCLHHSQNLLRAVSNMLQKARQTLEFYPCTSEEIDHEDITKDKTSTVEACLPLELTKNESCLNSRETSFITNGSCLASRKTSFMMALCLSSIYEDLKMYQVEFKTMNAKLLMDPKRQIFLDQNMLAVIDELMQALNFNSETVPQKSSLEEPDFYKTKIKLCILLHAFRIRAVTIDRVMSYLNAS
Interleukin-12 subunit beta: IWELKKDVYVVELDWYPDAPGEMVVLTCDTPEEDGITWTLDQSSEVLGSGKTLTIQVKEFGDAGQYTCHKGGEVLSHSLLLLHKKEDGIWSTDILKDQKEPKNKTFLRCEAKNYSGRFTCWWLTTISTDLTFSVKSSRGSSDPQGVTCGAATLSAERVRGDNKEYEYSVECQEDSACPAAEESLPIEVMVDAVHKLKYENYTSSFFIRDIIKPDPPKNLQLKPLKNSRQVEVSWEYPDTWSTPHSYFSLTFCVQVQGKSKREKKDRVFTDKTSATVICRKNASISVRAQDRYYSSSWSEWASVPCS
- expression of Cbl-b protein (ratio to β-actin) (Cbl-b [1]): no significant change
